Here are results for one compound from PMC11530827, “Characterization of a cytochrome P450 that catalyzes the O-demethylation of lignin-derived benzoates” (The Journal of Biological Chemistry, 2024).

In one assay the target is T1, PbdA S237A (Rhodococcus jostii, UniProt Q0SCI3, S235A).
T1 construct: hexaHis (N, cleaved yes); made in house; host or cells: PbdA variant: E. coli BL-21 λ (DE3); PbdB: Rhodococcus jostii RHA1
Nature of the assay: Substrate binding to PbdA S237A variant by spectral titration. On the set-up: species or system Rhodococcus jostii RHA1. The procedure: UV-visible spectroscopy was conducted with a Cary 60 spectrophotometer equipped with a thermostatted cuvette holder at 25 °C. Scans of purified proteins diluted in 20 mM Mops, I = 0.1 M, pH 7.2 were taken between 250 and 700 nm. Heme concentration was calculated as described previously ([35]). Carbon monoxide binding was determined by reduction of PbdA diluted in 20 mM Mops, I = 0.1 M, pH 7.2 as above by a few grains of […]. CO was bubbled into the reduced enzyme for approximately 60 s at a rate of one bubble per second. Dissociation constants (Kd) were determined by titration of ligands diluted into enzyme buffer from 1 M stocks prepared in dimethyl sulfoxide into PbdA diluted in 20 mM Mops, I = 0.1 M, pH 7.2. Spectra take upon addition of substrate were subtracted from the spectrum of the enzyme, and peak-to-trough distance was plotted by ligand concentration. Kd values were determined by fitting a hyperbolic equation to the data as described previously ([23], [36]). The proportion of high-spin heme iron was determined using the approximate peak-to-trough extinction coefficient (ε ≈ 100 mM^−1 cm^−1) ([36]).

The target of the next assay is T2, PbdA R84M (Rhodococcus jostii, UniProt Q0SCI3, R82M).
T2 construct: hexaHis (N, cleaved yes); made in house; host or cells: PbdA variant: E. coli BL-21 λ (DE3); PbdB: Rhodococcus jostii RHA1
T2 sequence (Q0SCI3 entry or part of it R82M): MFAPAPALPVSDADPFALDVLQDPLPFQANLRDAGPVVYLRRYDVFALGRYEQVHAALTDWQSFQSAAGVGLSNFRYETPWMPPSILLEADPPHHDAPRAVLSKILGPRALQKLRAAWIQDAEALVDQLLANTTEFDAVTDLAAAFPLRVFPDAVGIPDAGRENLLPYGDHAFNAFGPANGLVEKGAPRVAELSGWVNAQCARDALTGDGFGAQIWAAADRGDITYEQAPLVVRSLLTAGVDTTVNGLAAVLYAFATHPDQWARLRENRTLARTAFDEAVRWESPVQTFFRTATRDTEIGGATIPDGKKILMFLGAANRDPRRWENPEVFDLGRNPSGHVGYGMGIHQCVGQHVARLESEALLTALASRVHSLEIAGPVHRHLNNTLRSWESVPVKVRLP
Nature of the assay: Activity and coupling assay of PbdA R84M variant with PbdB. Format: biochemical, Rhodococcus jostii RHA1. As to the method:
(§1) For activity measurements 0.25 to 1 μM of PbdA and PbdB were combined in a 200 μl cuvette in 20 mM Mops, pH 7.2 with substrate diluted in the same buffer. NADH was added to 350 μM to initiate the reaction. For HPLC analysis, enzymatic reactions were acidified by adding acetic acid to 10% final concentration, centrifuged (16,000×g for 10 min), and filtered through a 0.2 μm polytetrafluoroethylene membrane. Samples were run over a Luna 5 μm C18(2) 100 Å 150 × 3 mm column (Phenomenex) at 0.7 ml min^−1 by a Waters 2695 separation HPLC module. Samples were eluted with a 16.8 ml linear gradient from 1% methanol plus 0.1% formic acid in water to 100% methanol plus 0.1% formic acid and monitored at 280 nm with a Waters 2996 photodiode array detector. Concentrations were determined by interpolation on a standard curve of 0 to 1 mM of authentic standard. NADH concentration was measured by absorbance at 340 nm, ε = 6.22 mM^-1 cm^-1. Coupling was calculated from the ratio of rate of aromatic turnover, as determined by HPLC, and the rate of NADH oxidation, determined spectroscopically. Buffer ionic strength was adjusted by addition of NaCl, as appropriate. Apparent steady-state kinetic parameters were calculated by fitting Michaelis–Menten equations to initial velocity of reactions at various concentrations of aromatic substrate (LEONORA).
(§2) ^aExperiments were performed using air-saturated MOPS (I = 0.1 M), pH 7.2, at 25 °C. The rate of aromatic substrate turnover was based on the appearance of O-demethylated product. Standard deviation is shown in parentheses.

In the next assay the target is T3, PbdA S87A/S237A (Rhodococcus jostii, UniProt Q0SCI3, S235A/S85A).
T3 construct: hexaHis (N, cleaved yes); made in house; host or cells: PbdA variant: E. coli BL-21 λ (DE3); PbdB: Rhodococcus jostii RHA1
T3 sequence (Q0SCI3 entry or part of it S85A/S235A): as the sequence (Q0SCI3 entry or part of it R82M) above, with M82R, S85A, S235A counted along it
Nature of the assay: Activity and coupling assay of PbdA S87A/S237A variant with PbdB. Format: biochemical, Rhodococcus jostii RHA1. The procedure:
as §1, §2

Setting [1] is: air-saturated MOPS (I = 0.1 M), pH 7.2, 25 °C.
The mark [2] stands for this setting: appearance of O-demethylated product.

T1 sequence (Q0SCI3 entry or part of it S235A): as the sequence (Q0SCI3 entry or part of it R82M) above, with M82R, S235A counted along it

On to `COc1ccc(C(=O)O)cc1` [p-MBA, p-methoxybenzoate], for which, at PbdA S237A, the affinity, expressed as Kd, was 29 µM. Further, the “ΔG°” value on PbdA S237A (S237A variant, binding energy) is -6.2 kcal/mol. Besides, the “ΔΔG°” value on PbdA S237A (S237A variant, comparison of ΔG° of variant to wild type) is listed as 1.2 kcal/mol. The figures for the Coupling on PbdA R84M and at PbdA S87A/S237A were 70 (9) % and 40 (2) %, respectively. Moreover, the Specific activity on PbdA R84M (O-demethylation) was 1100 (200) U μg P450^-1; at PbdA S87A/S237A (O-demethylation) it was 180 (10) U μg P450^-1. Moreover, the NADH depletion rate is 1700 (200) U mg P450^-1 at PbdA R84M (setting [1]) and 400 (30) U mg P450^-1 on PbdA S87A/S237A (setting [1]). The “Rate of Aromatic turnover” value on PbdA R84M (setting [2]) is listed as 1100 (200) U mg P450^-1; at PbdA S87A/S237A (setting [2]) it was 170 (10) U mg P450^-1.
